One series has as its system SUM149. Description: CellTiter-Glo 72 h cytotoxicity assay, SUM149. It counts as cell-based. The settings on record: Homo sapiens; for pEC50: SUM149, CTG assay, 72 h; for pIC50: calculated from SUM149 EC50. The source says:
First, topological polar surface area (tPSA), a widely used molecular descriptor that provides insight into compound absorption and membrane penetration, was theoretically calculated for these compounds along with the estimated c log P (partition coefficient) or log P to further assess their global therapeutic potential.[18],[19] Lipophilicity, a measurable and predictable physical property, can provide practical guidance in designing compounds with improved molecular properties.[20] The tPSA sums the contribution of the surface area of polar atoms, enabling us to determine whether the compounds are more likely to be cell membrane permeable. The aqueous solubility was measured by ultraviolet/visible (UV/vis) spectroscopy.[21] […] EP shares an improved cLogP, but still relatively high from a desirable drug candidate (2.5–3.5). […] Compound 4 has a higher c log P, while compounds 5–10 have lower c log P values. To determine LiPE (lipophilicity efficiency), the following formula was used: LiPE = pIC50 – log P, according to established methods.[22],[23] […] The obtained EC50 values for the newly generated EP derivatives were within a similar range for other derivatives previously described against TNBC models.[17]
The following stable human cell lines were utilized for this study: SUM149 and MDA-MB-231 (breast cancer models) and BJ (human normal fibroblast, foreskin). Cells were purchased from BioIVT or the American Type Culture Collection (ATCC). Cells were cultured in F-12-Nutrient Mixture (SUM149), DMEM (MDA-MB-231), or EMEM (BJ) medium supplemented with 10% fetal bovine serum (Sigma-Aldrich, St. Louis, MO) and 2 mmol of L-glutamine, at 37 °C in a humidified 5% CO2 atmosphere (no antibiotics) as indicated by the manufacturer. Cell cultures were grown to 80–90% confluence before use, except where otherwise specified. Our cell lines are authenticated every 3 months using the CellCheck service (Idexx BioResearch, Westbrook, ME). Cells were tested for mycoplasma prior to use (MycoAlert detection Kit Lonza LT07–318) and discarded if they tested positive. A cell proliferation assay was performed using the CellTiter-Glo (Promega Corp., Madison, WI) luminescent cell viability assay kit. Cells were detached with trypsin, counted, and seeded in white polystyrene flat-bottom sterile 96-well tissue culture-treated plates (catalog no. 3917, Corning, Glendale, Arizona) and incubated overnight at 37 °C. MDA-MB231, SUM149, and BJ cells were seeded into 96-well plates at concentrations experimentally determined (0.4 × 10^4, 0.25 × 10^4, and 0.3 × 10^4 cells per well, respectively) to ensure logarithmic growth during the duration of the experiment and to prevent adverse effects on cell growth by DMSO exposure. The plates were incubated for 12 h before treatment. Stock solutions of test compounds (10 mM in DMSO) in nine 3-fold serial dilutions were dispensed. The final concentration of DMSO was 0.3% (v/v) in each well. The positive control used was staurosporine (10 μM) as the kill-all control, and the negative control used is DMSO as we have published. Staurosporine is a potent alkaloid inducer of various cell death modalities but primarily apoptosis, making it a reliable positive control for viability assays. The plates were incubated for 72 h and then quenched with CTG at 50 μL per well at RT. Plates were then incubated at RT for 20 min and centrifuged at 1000 rpm for 1 min. Luminescence was read on a CLARIOstar Plus plate reader (BMG LabTech, Ortenberg, Germany).
Three or four technical replicates were conducted for each experimental condition, and a minimum of three independent experiments were conducted for each assay. In vitro ADME values were expressed as mean ± standard deviation (SD) of at least three independent experiments. One-way analysis of variance (ANOVA) was adopted for comparisons among groups using the GraphPad Prism 10.2.3 (GraphPad Software, San Diego, CA). A difference of P < 0.05 was considered as statistically significant. […]

Series [1] can be described thus: Metabolic stability in human liver microsomes. It counts as in vitro ADME. The settings on record: both sexes, pooled liver microsomes, read-out: metabolic stability (human) t1/2 (converted). (In general: Liver microsomes are a subcellular fraction often used to study metabolism.)
Protocol: Human and/or mouse microsomal degradation was determined using multiple time points to monitor the rate of disappearance of the parent compound during incubation following the method described by Di et al.[51],[52] […] The metabolic stability was evaluated via the half-life from the least-squares fit of the multiple time points based on first-order kinetics. Waters ACQUITY-TOQ UPLC-MS-MS-UV system was used to analyze the samples as established in various MS core facilities.[51],[52]
A short description of series [2]: Parallel Artificial Membrane Permeability Assay (PAMPA). The class given is in vitro ADME. As to the method:
This assay is to analyze the permeability of various drugs/compounds on a homogeneous artificial lipid membrane using the normal Double-Sink PAMPA protocol. Then, 6 μL of 10 mM compound solution in DMSO was applied to each well in a stock plate. Compounds were diluted 200-fold in PBS buffer (pH = 7.4). 180 μL of diluted solution was added to a donor plate (pION INC, Woburn, MA). A filter plate (acceptor plate; pION INC, Woburn, MA) containing 200 μL of acceptor sink buffer (ASB, pH = 7.4; pION INC, Woburn, MA) was then placed over the donor plate. The plates were incubated at room temperature for 0.5 h with magnetic stirring in individual wells to allow the compounds to cross the membrane. Fractions were collected from both the donor plate and the acceptor plate, and the concentrations were assessed by UV spectrometry (230–500 nm). Sample preparation, sample analysis, and data processing are fully automated using a Biomek FX ADME-TOX workstation and the UV-based PAMPA Evolution-96 Command Software. All compounds were tested in triplicates.
Background: The PAMPA barrier holds no transporters, so it reflects passive diffusion.

A short description of series [3]: Caco-2 permeability assay. The settings on record: human; for efflux ratio at 2 h, 10 µmol/L: Caco-2, pH 7.4, Caco-2, read-out: efflux ratio (B2A/A2B); for Papp A→B at 2 h, 10 µmol/L / Papp B→A at 2 h, 10 µmol/L: Caco-2, pH 7.4; for Papp A→B at 2 h, 10 µmol/L: apical to basolateral; for Papp B→A at 2 h, 10 µmol/L: basolateral to apical. The class given is in vitro ADME. As for the experimental part:
It was performed in the 96-well Transwell system with a modified method.[36] Caco-2 cells were maintained at 37 °C in a humidified incubator with an atmosphere of 5% CO2. The cells were cultured in MEM containing 20% FBS in […], 100 units/mL penicillin, and 100 μg/mL of streptomycin. The Caco-2 cells were seeded onto inserts of a 96-well plate at a density of 0.5 × 10^5 cells/insert and cultured in the MEM containing 20% FBS for 7 days. Each cultured monolayer on the 96-well plate was washed twice with HBSS/HEPES (10 mM, pH 7.4). The permeability assay was initiated by the addition of each compound solution (10 μmol/L) into inserts (apical side, A) or receivers (basolateral side, B). The Caco-2 cell monolayers were incubated for 2 h at 37 °C. Fractions were collected from receivers (if apical to basal permeability) or inserts (if basal to apical permeability), and concentrations were assessed by UPLC/MS (Waters; Milford, MA). All compounds were tested in triplicates. The A → B (or B → A) apparent permeability coefficients ([…]) of each compound were calculated using the equation Pappa = dQ/dt × 1/AC0. The flux of a drug across the monolayer is dQ/dt (μmol/s). The initial drug concentration on the apical side is C0 (μmol/L). The surface area of the monolayer is A (cm^2).
(In general: Caco-2 cells form a polarised layer with tight junctions and transporters.)

pEC50, pIC50: −log10 of the molar value.

The text below walks through data of publication PMC11375702, “Early Preclinical Studies of Ergosterol Peroxide and Biological Evaluation of Its Derivatives” (ACS Omega, 2024).

Usually pEC50 stands for the EC50 on a negative log10 scale, so that one unit is a factor of ten. Read a high pEC50 as a low EC50. The pIC50 is −log10 of the IC50, conventionally taken in molar units. What is called Papp A→B is how fast a substance crosses the layer from the apical side. A low value points to poor permeation. For orientation: Papp B→A means how fast a substance crosses the layer from the basolateral side.

As to `CC(C)[C@@H](C)/C=C/[C@@H](C)[C@H]1CC[C@@H]2[C@]1(C)CC[C@H]1[C@]23C=C[C@]2(C[C@@H](O)CC[C@]12C)OO3` [Compound 2, Ergosterol peroxide], in the series on SUM149, the pEC50 was 5.22 and the pIC50 is 5.22. Further, the half-life in series [1] was 2.74 h. Also, the Papp at 0.5 h, 50 µM in series [2] (PAMPA, pH 7.4, pH 7.40, read-out: PAMPA Avg Pe) worked out at 65.3 ×10⁻⁶ cm/s. In series [2] (pH 7.40), the “PAMPA %R” value was found to be 81.90% and the “PAMPA Avg Pe” value is 65.31 10–6 cm/s. Besides, in series [3], the efflux ratio at 2 h, 10 µmol/L is approximately 1; the Papp A→B at 2 h, 10 µmol/L stood at 34.2 ×10⁻⁶ cm/s; the basolateral-to-apical permeability (Papp B→A) at 2 h, 10 µmol/L was found to be 31.9 ×10⁻⁶ cm/s.
As to `CC(C)[C@@H](C)/C=C/[C@@H](C)[C@H]1CC[C@@H]2[C@]1(C)CC[C@H]1[C@]23C=C[C@]2(CC(=O)CC[C@]12C)OO3` [Compound 3], in the series with SUM149, the pEC50 is 5.30 and the pIC50 is 5.30. In series [1], the half-life was 0.83 h. In series [2] (PAMPA, 0.5 h, 50 µM, pH 7.4), the “PAMPA Avg Pe” value was 00 10–6 cm/s. Also, in series [3], the efflux ratio at 2 h, 10 µmol/L came out at 0.49; the Papp A→B at 2 h, 10 µmol/L is 0.626 ×10⁻⁶ cm/s; the Papp B→A at 2 h, 10 µmol/L turned out to be 0.307 ×10⁻⁶ cm/s.
